Holding throughout (assay type): cell-based
Experiment [1] has as its target T1, human AT1R (Homo sapiens, UniProt P30556).
T1 sequence (P30556 1-359): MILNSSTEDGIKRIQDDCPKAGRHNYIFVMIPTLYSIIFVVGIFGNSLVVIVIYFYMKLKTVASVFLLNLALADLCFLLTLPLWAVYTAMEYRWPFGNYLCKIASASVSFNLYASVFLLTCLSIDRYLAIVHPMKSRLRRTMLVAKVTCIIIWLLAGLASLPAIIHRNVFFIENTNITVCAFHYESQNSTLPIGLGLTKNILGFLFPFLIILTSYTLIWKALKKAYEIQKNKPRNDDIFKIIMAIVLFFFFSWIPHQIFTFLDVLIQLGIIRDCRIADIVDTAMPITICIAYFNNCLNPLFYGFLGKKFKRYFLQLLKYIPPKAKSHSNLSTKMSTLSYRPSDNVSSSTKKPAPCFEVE
The experiment in a line: IP1 accumulation assay (IP1 G-protein assay), human AT1R. The settings on record: for Emax: read-out: Span (relative to hAngII). The protocol:
(§1) A secondary measure of G protein coupling efficacy was also performed. IP3 is generated by activation of phospholipase C by Gα-q. IP3 is degraded to IP1, which can be forced to accumulate in cells by blocking degradation with lithium chloride. Thus we measured accumulation of IP1 to determine ligand efficacy for G protein activation.
(§2) IP1 accumulation generated by human and rat angiotensin 2 type 1 receptor (human AT1R and rat AT1aR, respectively) was measured with IP-One Tb kits purchased from Cisbio and used per the manufacturer's instructions. Clonal stably transfected cell lines expressing human AT1TR or rat AT1aR were used for all experiments.
(§3) For assays, 4,000-8,000 cells were seeded per well in 384-well small-volume microplates “HiBase” small-volume plate in volumes of 20 uL and allowed to grow overnight at 37° C. in 5% CO2. Cell growth media was then replaced with stimulation buffer supplied by Cisbio containing 50 mM lithium chloride. […] For agonist detection, peptides were then further diluted in stimulation buffer to add peptide to the cells to reach final concentrations ranging from 100 uM to 1 pM. Following addition of peptides, cells were incubated at 37° C. in 5% CO2 for 30 minutes and then lysed with 4 uL of pre-mixed HTRF IP-One reagents diluted per manufacturer's instructions (Cisbio). Microplates were incubated for 60-90 minutes at room temperature and then time-resolved fluorescence intensities were measured using a PHERAstar Plus microplate reader from BMG Labtech. IP1 accumulation was measured as change in ratio of time-resolved fluorescent intensities measured at 665 nm and 620 nm.

For experiment [2], the target named is T2, rat AT1aR (Rattus norvegicus, UniProt P25095).
T2 sequence (P25095 1-359): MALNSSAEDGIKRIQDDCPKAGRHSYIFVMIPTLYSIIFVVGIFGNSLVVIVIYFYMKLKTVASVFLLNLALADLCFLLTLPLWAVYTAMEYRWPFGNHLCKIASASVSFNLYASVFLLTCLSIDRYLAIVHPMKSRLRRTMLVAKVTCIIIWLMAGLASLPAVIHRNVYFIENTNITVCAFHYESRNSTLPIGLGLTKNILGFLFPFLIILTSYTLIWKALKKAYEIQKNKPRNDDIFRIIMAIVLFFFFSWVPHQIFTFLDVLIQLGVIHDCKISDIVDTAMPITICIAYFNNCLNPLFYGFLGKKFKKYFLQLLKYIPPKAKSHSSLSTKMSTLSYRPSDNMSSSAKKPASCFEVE
The experiment is described as follows: IP1 accumulation assay (IP1 G-protein assay), rat AT1aR. To be noted: for Emax: read-out: Span (relative to hAngII). The method, then: as §1, §2, §3

Experiment [3] deals with T1, human AT1R. The experiment in a line: beta-arrestin2 recruitment assay (PathHunter), human AT1R. The settings on record: for Emax: 1 h, read-out: Span (relative to hAngII). The essentials:
(§4)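 Luminescence, in arbitrary units, read after 60 min room-temperature detection reflects β-arrestin-2 recruitment to human AT1R or rat AT1aR stably expressed in PathHunter HEK293 clones. Cells were exposed to peptides from 1 pM to 100 μM final in HEPES-buffered HBSS for 60 min at 37 °C.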

Experiment [4] addresses T2, rat AT1aR. The experiment is described as follows: beta-arrestin2 recruitment assay (PathHunter), rat AT1aR. To be noted: for Emax: 1 h, read-out: Span (relative to hAngII). The essentials: as §4

5 molecules from patent US8946142B2, “Beta-arrestin effectors and compositions and methods of use thereof” (Trevena, Inc., priority 2012, dated 2015) can be followed below.

Where a SMILES comes first, the peptide text is derived from it. [ ]: non-standard residue; d: D form. Ac6c = NC1(C(=O)O)CCCCC1; Ac5c = NC1(C(=O)O)CCCC1; Sar = CNCC(=O)O

Regarding `CNCC(=O)N[C@@H](CCCNC(=N)N)C(=O)N[C@H](C(=O)N[C@@H](Cc1ccc(O)cc1)C(=O)NC1(C(=O)N[C@@H](Cc2c[nH]cn2)C(=O)N2CCC[C@H]2C(=O)N[C@@H](Cc2ccccc2)C(=O)O)CCCCC1)C(C)C` [SEQ ID NO: 17, Sar-Arg-Val-Tyr-cyHex-His-Pro-Phe] (H-[Sar]RVY[Ac6c]HPF-OH; N-terminus and C-terminus assumed), the EC50 in experiment [1] (read-out: EC50) is less than 1.3 nM; in experiment [1] (read-out: pEC50 (converted)), more than 0.631 nM; in experiment [2] (read-out: EC50) it was more than 0.6 nM; in experiment [3] (read-out: EC50) it was more than 3.2 nM; in experiment [4] (read-out: EC50), 3.2 nM. Also, the Emax in experiment [1] is less than 103%; in experiment [2], more than 104%; in experiment [3] it was more than 101%; in experiment [4], less than 105%.

Take `CNCC(=O)N[C@@H](CCCNC(=N)N)C(=O)N[C@H](C(=O)N[C@@H](Cc1ccc(O)cc1)C(=O)NC1(C(=O)N[C@@H](Cc2c[nH]cn2)C(=O)N2CCC[C@H]2C(=O)N[C@@H](C)C(=O)O)CCCCC1)C(C)C` [SEQ ID NO: 2, Sar-Arg-Val-Tyr-cyHex-His-Pro-Ala]: the EC50 in experiment [1] (read-out: EC50) is 10000 nM; in experiment [1] (read-out: pEC50 (converted)) it was more than 0.631 nM; in experiment [2] (read-out: EC50) it was more than 0.6 nM; in experiment [3] (read-out: EC50), more than 3.2 nM; in experiment [4] (read-out: EC50), more than 3.2 nM. Besides, the Emax in experiment [1] was less than 103%; in experiment [3] it was less than 101%; in experiment [4], less than 105%.

With `CNCC(=O)N[C@@H](CCCNC(=N)N)C(=O)N[C@H](C(=O)N[C@@H](Cc1ccc(O)cc1)C(=O)NC1(C(=O)N[C@@H](Cc2c[nH]cn2)C(=O)N2CCC[C@H]2C(=O)N[C@@H](C)C(=O)O)CCCC1)C(C)C` [SEQ ID NO: 3, Sar-Arg-Val-Tyr-cyPen-His-Pro-Ala], the EC50 in experiment [1] (read-out: EC50) is more than 10000 nM; in experiment [1] (read-out: pEC50 (converted)), more than 0.631 nM; in experiment [2] (read-out: EC50) it was more than 0.6 nM; in experiment [2] (read-out: pEC50 (converted)), more than 0.631 nM; in experiment [3] (read-out: EC50) it was more than 3.2 nM; in experiment [3] (read-out: pEC50 (converted)) it was more than 3.16 nM. For the same molecule, the EC50 in experiment [4] (read-out: EC50) is more than 3.2 nM; in experiment [4] (read-out: pEC50 (converted)) it was more than 3.16 nM. Moreover, the Emax is less than 101% in experiment [3] and less than 105% in experiment [4].

On to `CNCC(=O)N[C@@H](CCCNC(=N)N)C(=O)N[C@H](C(=O)N[C@@H](Cc1ccc(O)cc1)C(=O)NC1(C(=O)N[C@@H](Cc2c[nH]cn2)C(=O)N2CCC[C@H]2C(=O)N[C@@H](CCC(N)=O)C(=O)O)CCCCC1)C(C)C` [SEQ ID NO: 38, Sar-Arg-Val-Tyr-cyHex-His-Pro-Gln] (H-[Sar]RVY[Ac6c]HPQ-OH), for which the EC50 in experiment [1] (read-out: EC50) is more than 1.3 nM; in experiment [1] (read-out: pEC50 (converted)) it was more than 0.631 nM; in experiment [2] (read-out: EC50) it was more than 0.6 nM; in experiment [2] (read-out: pEC50 (converted)) it was more than 0.631 nM; in experiment [3] (read-out: EC50), more than 3.2 nM; in experiment [3] (read-out: pEC50 (converted)), more than 3.16 nM. Besides, the EC50 was more than 3.2 nM in experiment [4] (read-out: EC50) and more than 3.16 nM in experiment [4] (read-out: pEC50 (converted)). The Emax in experiment [1] was less than 103%; in experiment [2], less than 104%; in experiment [3] it was less than 101%; in experiment [4], less than 105%.

On to `CC[C@H](C)[C@H](NC(=O)[C@@H]1CCCN1C(=O)[C@H](Cc1c[nH]cn1)NC(=O)C1(NC(=O)[C@H](Cc2ccc(O)cc2)NC(=O)[C@@H](NC(=O)[C@H](CCCN=C(N)N)NC(=O)CNC)C(C)C)CCCC1)C(=O)O` [SEQ ID NO: 18, Sar-Arg-Val-Tyr-cyPen-His-Pro-Ile] (H-[Sar]RVY[Ac5c]HPI-OH), for which the EC50 in experiment [1] (read-out: EC50) was more than 1.3 nM; in experiment [1] (read-out: pEC50 (converted)), more than 0.631 nM; in experiment [2] (read-out: EC50), more than 0.6 nM; in experiment [2] (read-out: pEC50 (converted)) it was more than 0.631 nM; in experiment [3] (read-out: EC50), more than 3.2 nM; in experiment [3] (read-out: pEC50 (converted)), more than 3.16 nM. Besides, the EC50 in experiment [4] (read-out: EC50) is more than 3.2 nM; in experiment [4] (read-out: pEC50 (converted)) it was more than 3.16 nM.
